Source: the NIST ThermoML archive (doi:10.1021/acs.jced.8b01120)
Numbers after ± are expanded uncertainties.

Assay: xn = mol fraction of the nth substance listed
Settings: 100 kPa, Liquid; for speed of sound: Single path-length method; for mass density: Vibrating tube method

CCCCN(CCCC)CCCC [tributylamine] + COC(C)=O
Settings | mass density, 293.15 K [kg/m3] | mass density, 298.15 K [kg/m3] | mass density, 303.15 K [kg/m3] | mass density, 308.15 K [kg/m3] | mass density, 313.15 K [kg/m3] | speed of sound, 293.15 K [m/s] | speed of sound, 298.15 K [m/s] | speed of sound, 303.15 K [m/s] | speed of sound, 308.15 K [m/s] | speed of sound, 313.15 K [m/s]
x1 = 0.0501 | 913.106 ± 2 | 906.572 ± 2 | 900.184 ± 2 | 893.938 ± 2 | 887.487 ± 2 | 1184.6 ± 4 | 1160.4 ± 4 | 1140 ± 4 | 1113.4 ± 4 | 1094.9 ± 4
x1 = 0.1009 | 893.96 ± 2 | 887.924 ± 2 | 881.943 ± 2 | 875.744 ± 2 | 869.547 ± 2 | 1188.9 ± 4 | 1165.2 ± 4 | 1144.5 ± 4 | 1118 ± 4 | 1099.6 ± 4
x1 = 0.2003 | 864.36 ± 2 | 858.987 ± 2 | 853.583 ± 2 | 848.346 ± 2 | 842.744 ± 2 | 1197.3 ± 4 | 1174.1 ± 4 | 1153.7 ± 4 | 1128.1 ± 4 | 1109.7 ± 4
x1 = 0.2941 | 843.967 ± 2 | 838.976 ± 2 | 833.982 ± 2 | 828.97 ± 2 | 823.819 ± 2 | 1205.6 ± 4 | 1182.6 ± 4 | 1161 ± 4 | 1137.7 ± 4 | 1118.6 ± 4
x1 = 0.4009 | 826.428 ± 2 | 821.765 ± 2 | 817.081 ± 2 | 812.409 ± 2 | 807.525 ± 2 | 1213.9 ± 4 | 1191.9 ± 4 | 1171.2 ± 4 | 1148.1 ± 4 | 1129.6 ± 4
x1 = 0.5004 | 813.696 ± 2 | 809.242 ± 2 | 804.881 ± 2 | 800.355 ± 2 | 795.747 ± 2 | 1222.5 ± 4 | 1200.4 ± 4 | 1180.6 ± 4 | 1158.4 ± 4 | 1138.9 ± 4
x1 = 0.6008 | 803.345 ± 2 | 799.107 ± 2 | 794.831 ± 2 | 790.504 ± 2 | 786.225 ± 2 | 1230.4 ± 4 | 1209.5 ± 4 | 1190.4 ± 4 | 1167.9 ± 4 | 1149.1 ± 4
x1 = 0.7008 | 794.987 ± 2 | 790.893 ± 2 | 786.764 ± 2 | 782.571 ± 2 | 778.432 ± 2 | 1239 ± 4 | 1218.5 ± 4 | 1198.7 ± 4 | 1177.6 ± 4 | 1159 ± 4
x1 = 0.8004 | 788.147 ± 2 | 784.162 ± 2 | 780.197 ± 2 | 776.154 ± 2 | 772.052 ± 2 | 1247.6 ± 4 | 1227 ± 4 | 1207.9 ± 4 | 1187.8 ± 4 | 1168.5 ± 4
x1 = 0.9003 | 782.234 ± 2 | 778.353 ± 2 | 774.459 ± 2 | 770.516 ± 2 | 766.597 ± 2 | 1255.7 ± 4 | 1236.1 ± 4 | 1217 ± 4 | 1197.3 ± 4 | 1177.8 ± 4
x1 = 1 | 777.01 ± 2 | 773.283 ± 2 | 769.55 ± 2 | 765.81 ± 2 | 762.06 ± 2 | 1264.2 ± 4 | 1245.2 ± 4 | 1226.2 ± 4 | 1207.4 ± 4 | 1188.8 ± 4
